The test concerns Proteus. As to the kind of experiment: Proteus background growth, plates inoculated with mixed culture of Proteus and Shigella. Type of test: cell-based. As to conditions: general statement. The source says: FIG. 6 is a photograph of two plates. The plate on the right is coated with the selective growth media N4 agar of the present invention. The plate on the left is coated with SS agar.
FIG. 7 presents a photograph of two agar coated plates. On the right is a plate coated with a prototype N4 formulation assessing the concentration of NIAPROOF®4 for the suppression of competing, background bacterial growth while allowing good growth of Shigella. The plate on the left is coated with XLD agar. Both plates were inoculated with a mixed culture of Proteus and Shigella organisms and allowed to grow overnight.

Where a name gives a salt, the structure may show the parent alone.

The record followed here is patent US7842496B2, “Advanced selective plating media” (University of Maryland, priority 2006, dated 2010).

For the compound `CCCCC(CC)CCC(CC(C)C)OS(=O)(=O)O` (stereo not shown) [NIAPROOF®4, 7-ethyl-2-methyl-4-undecanol hydrogen sulfate], the “Suppression of Proteus spp.” value is given as “very potent reagent in suppressing Proteus spp”.
